From paper PMC165585 (BMC Structural Biology, 2003)

Columns and labels:
[1] = target: T1, LysU (heat-inducible Escherichia coli lysyl-tRNA synthetase) (Escherichia coli, UniProt P0A8N5); experiment: isothermal titration calorimetry; format: binding
T1 sequence (P0A8N5 2-505): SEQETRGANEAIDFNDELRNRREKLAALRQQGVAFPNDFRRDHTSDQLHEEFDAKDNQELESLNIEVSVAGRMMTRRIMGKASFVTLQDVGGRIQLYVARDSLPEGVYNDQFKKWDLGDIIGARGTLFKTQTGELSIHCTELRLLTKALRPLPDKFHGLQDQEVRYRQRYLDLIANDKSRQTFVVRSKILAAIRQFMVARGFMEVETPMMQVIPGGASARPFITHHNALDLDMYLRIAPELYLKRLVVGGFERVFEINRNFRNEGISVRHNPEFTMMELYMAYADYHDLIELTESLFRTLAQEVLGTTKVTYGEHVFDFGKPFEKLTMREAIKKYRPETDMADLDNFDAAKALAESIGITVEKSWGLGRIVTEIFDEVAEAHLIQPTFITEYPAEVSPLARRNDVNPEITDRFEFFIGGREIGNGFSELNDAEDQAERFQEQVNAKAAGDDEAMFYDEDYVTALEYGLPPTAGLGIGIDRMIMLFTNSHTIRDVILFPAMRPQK

[2] = target: T1, LysU (heat-inducible Escherichia coli lysyl-tRNA synthetase); experiment: biochemical

SMILES | Kd [1] | Kd [2]
Nc1ncnc2c1ncn2[C@@H]1O[C@H](COP(=O)(O)OP(=O)(O)CP(=O)(O)O)[C@@H](O)[C@H]1O [AMPPCP, β,γ-methyleneadenosine 5'-triphosphate] | 1.22 ± 0.15 µM | –
NCCCC[C@H](N)C(=O)O [lysine] | – | 7.96 ± 1.4 µM
